# Source: a melting point compilation (Tetko et al.; mined from patent text by program, amines drawn as free bases though some values may be those of a salt)
row,SMILES,melting point
1,N#Cc1c(C(N)=O)c2n(c1C1CC1)CCN(C(=O)Nc1ccc(C(=O)O)cc1)C2,279 to 280 °C
2,CSC(=NC(=O)c1cccc(Br)c1)NC(=O)c1ccccc1,145 to 146 °C
3,O=C(NC1CCOCC1)c1cccc(-c2cccc3cc(Cc4cc(F)cc(Cl)c4)sc23)c1,127 to 128 °C
4,CCc1nc(-c2ccc(OCCCn3ccnc3C)cc2)no1,77 to 78.5 °C
5,N#Cc1ccc(C(N)=O)s1,222 to 223 °C
6,CCN1CCN(CCCOc2cc3ncc(C#N)c(Nc4ccc(Sc5nc(C)c(C)n5CC)c(Cl)c4)c3cc2OC)CC1,229 to 230 °C
7,COc1ccc(S(=O)(=O)Nc2ccccc2NC(=O)c2ccccn2)cc1,174 to 175 °C
8,Cn1ncc2[nH]c3ccc(Cc4ccc(C#N)cc4)cc3c(=O)c21,291 °C
9,CC(=O)Nc1nc(N)nc(-c2ccc(S(=O)(=O)c3ccccc3)cc2)n1,> 260 °C
10,O=C(c1cc(N2CCC(F)(F)CC2)ccn1)N(O)Cc1ccccc1,90 to 95 °C
11,CN(C(=S)N[C@@H](Cc1ccc(NC(=O)c2c(Cl)cncc2Cl)cc1)C(=O)O)c1ccccc1Cc1ccccc1,198 °C
12,Cc1cc(-c2ccc(C(F)(F)F)cc2)cc(-c2cccc(-c3cccc(NS(=O)(=O)N4CCOCC4)c3)n2)n1,191 °C
13,COC(=O)c1sc2cccc(Cl)c2c1Br,120 to 122 °C
14,CCOC(=O)c1ccc(OC(=O)c2cccc(C(=O)Oc3ccc(C(=O)OCC)cc3)c2)cc1,123 to 125 °C
15,COc1ccc2c(c1)C(=O)N(CCCNCCCN1C(=O)c3cc(OC)ccc3C(C)(C)C1=O)C(=O)C2(C)C,151 to 152 °C
16,CN1C(=O)C(C)(C)N=C(c2ccccc2Cl)c2c1ccc(N)c2Cl,195 to 196 °C
17,O=C1CC2c3c(Br)cccc3CCC23OCC(c2ccccc2)N13 (configuration not stated),123 to 126 °C
18,CC(C)NCC(O)COc1cc(-c2ccccc2)nc2ccccc12 (racemic),109 to 111 °C
19,COc1cc(C(=O)c2ccc(C)cc2)cc(C(=O)O)c1OC,135 to 136 °C
20,CCN(CC)C(=O)c1nc(C)n2c1CN=C(c1ccccc1F)c1cc(Cl)ccc1-2,182 to 188 °C
21,CCN(c1nc(C)cc(-c2ccccc2Cl)n1)c1c(Br)cc(N(C)C)cc1OC,131 to 132 °C
22,COC(=O)c1ccc(C(O)c2cc3cc(Cl)cnc3n2S(=O)(=O)c2ccc(C(C)C)cc2)cc1 (configuration not stated),77 °C

row,SMILES,melting point
1,O=C(O)c1ccc2c(c1)CCCS2(=O)=O,246 to 249 °C
2,[N-]=[N+]=NCC1=NN=C(c2ccc([N+](=O)[O-])cc2)c2cc3c(cc2C1)OCO3,198 to 200 °C
3,Cc1c(NC(=O)c2ccc(OC[C@@H]3CCCO3)cc2)ccc2c1cc(CN1CCC(C)(O)CC1)n2C,210 °C
4,CCc1nc([C@@H]2C[C@H]2c2nc3ccccc3n2C)cc(-n2nc(C)nc2C)n1 (relative stereo),158 to 160 °C
5,C=CCC(CC=C)(CC=C)c1ccc(-c2nc3cc(C#N)c(C#N)cc3n2CCC)cc1,132 to 134 °C
6,COC(=O)c1cc2cc(NC(C)=O)ccc2o1,158 to 159 °C
7,C#CCOCc1c(C)nc2c(OCc3ccccc3C#N)cccn12,144 °C
8,CCn1nc(-c2sc(C(=O)NCc3ccccn3)nc2-c2ccccc2)ccc1=O,169 to 170 °C
9,CS(=O)(=O)c1ccc(C2=C(c3ccccc3)C(=O)OC2)cc1F,161 to 162 °C
10,CCOC(=O)C1CNc2cc([N+](=O)[O-])ccc2O1 (configuration not stated),88 to 90 °C
11,O=C(O)c1c(Cl)nc(-c2ccccc2)c2ccccc12,208 °C
12,Cc1ccc(C)c(P(=O)(C(=O)c2c(Cl)cccc2Cl)C(=O)c2c(Cl)cccc2Cl)c1,172 °C
13,CCOC(=O)c1cccc2c1c1c(C)ccc(C)c1n2S(=O)(=O)c1ccc(C)cc1,149 °C
14,Cc1cccc2c1N(CC(=O)N1CC3CCC(CC3)C1)C(=O)C(NC(=O)Nc1cccc(CO)c1)N=C2c1ccccc1F (configuration not stated),188 to 202 °C
15,COc1ccc2sc(C(=O)OCc3ccccc3)c(OCc3ccccc3)c2c1,66 to 67 °C
16,Cc1cc(C2=NN(C(=O)C=CCC(=O)O)C(C)Cc3cc4c(cc32)OCO4)ccc1[N+](=O)[O-] (configuration not stated),158 to 160 °C
17,CC(C)(O)c1cc(Cn2cncn2)cc(C(C)(C)C#N)c1,152 to 154 °C
18,ON=C(c1ccc(CN2CCOCC2)cc1)c1cccc2nc(N[C@@H]3CCc4ccccc43)ccc12,167 °C
19,Cc1c(N2CCC(C)(NC(=O)OC(C)(C)C)C2)c(F)c(N)c2c(=O)c(C(=O)O)cn(C3CC3)c12 (configuration not stated),214 °C
20,COC(=O)c1ccc([N+](=O)[O-])[nH]1,178 to 179 °C
21,N#Cc1ccc(N)cc1N,102 to 103 °C
22,O=C(OCc1ccccc1)c1cc(Cl)c(Cl)c(Cl)n1,125 to 126 °C

row,SMILES,melting point
1,Cc1oc(-c2ccccc2)nc1COc1ccc(CON=C(CCCCC(=O)O)c2ccccc2)cc1,101 to 102 °C
2,CCCCCCCCCCc1ccc(C(=O)COC)c(OC(=O)c2cc(OC)c(OC)cc2OC)c1,80 to 81 °C
3,CC(CNC12CC3CC(CC(C3)C1)C2)N1CCN(c2ccccn2)CC1 (configuration not stated),67 to 68 °C
4,COc1ccc(-c2cc(-c3ccccc3)[nH]c2C(=O)Nc2ccc(C(=O)NO)cc2)cc1,234 to 235 °C
5,CNC(Cc1cc(Cl)ccc1N)c1sccc1C (configuration not stated),59 to 61 °C
6,CCN(c1ccc(C(=O)O)cc1)c1cc2c3c(c1)CCCC3(C)CCC2,279 to 280 °C
7,CC(C)(C)c1cc(SC2(Sc3cc(C(C)(C)C)c(O)c(C(C)(C)C)c3)CCCCC2)cc(C(C)(C)C)c1O,195 to 197 °C
8,O=C1Cc2cccc(OCc3ccccc3)c2N1,140 to 142 °C
9,CCCCCCCNC(=O)Nc1ccc(N2CCOCC2)cc1C(=O)NCC1CCN(C(c2ccccc2)c2ccccc2)CC1,153 to 155 °C
10,NC12CCCC(C1)C1CCC2C1 (configuration not stated),111 to 113 °C
11,CCCCc1ccc(C(=O)NCCCCCCO)cc1,80 to 81 °C
12,CCCCNc1nc(C)no1,62 to 65 °C
13,CC(C)(Oc1ccc(OCCCCc2cc(-c3ccc(C(F)(F)F)cc3)no2)cc1)C(=O)O,103 to 104 °C
14,C=CCOC(=O)C1=C2c3ccccc3CC[C@@H]2[C@@H]2[C@@H]([C@@H](C)O)C(=O)N12,133 to 134 °C
15,FC(F)(F)c1ccc(C#Cc2ccc(C#Cc3cc4ccccc4s3)s2)cc1,149 to 150 °C
16,c1ccc(P(c2ccccc2)c2c3ccccc3cc3ccccc23)cc1,204 °C
17,COC(=O)c1nc(-c2ccccc2)n2c1CN=C(c1ccccc1F)c1cc(Cl)ccc1-2,208 to 209 °C
18,O=C(Nc1ccccc1-n1cccn1)c1cccc2c1C(=O)c1ccccc1-2,164 to 166 °C
19,Cc1cc2c(cc1NC(=O)c1cccc(I)c1C(=O)NC(C)C)OC(F)(F)C2(O)C(F)(F)F (configuration not stated),144 to 146 °C
20,CCOc1ccc2c(c1)n(C1CCCCC1)c(=O)n2S(=O)(=O)c1ccc(NC(=O)NC(C)(C)C)cc1OC,237 °C

# The next lines start with the values.
row,melting point,SMILES
1,56 to 57 °C,COc1cc2c(c(C(C)C)c1OC)CC(C)C=C2 (configuration not stated)
2,71 to 72 °C,Cc1cc(C=O)ccc1C=O
3,163 °C,Clc1cccc(-c2onc3ccc(Br)cc23)c1
4,> 260 °C,O=C(O)Cc1cc(C(=O)Cc2ccc(C(=O)O)cc2)ccc1O
5,192 to 194 °C,CCCN1CCCN(c2ccccc2)c2cc(Cl)ccc21
6,118 to 120 °C,CC(=O)NNc1ccc(NCc2ccccc2)cc1
7,96 to 99 °C,CCCC1(C(=O)NCc2ccc(N3Cc4ccccc4C3=O)cc2)c2ccccc2-c2ccccc21
8,153 to 155 °C,CCCC(=O)c1cnc2ccsc2c1Nc1ccc(F)cc1C
9,168 to 169 °C,CN1CCC(=C2c3cc(Cl)ccc3CC(=O)c3sccc32)CC1
10,245 to 246 °C,O=C(c1ccc([N+](=O)[O-])cc1)N1CCc2cc(S(=O)(=O)n3cc(-c4ccccc4)[nH]c3=O)ccc21
11,116 to 117 °C,CS(=O)(=O)c1ccc(Oc2cc(OC3CCOCC3)c3[nH]c(C4=NCC(CCO)S4)cc3c2)cc1 (configuration not stated)
12,141 to 142 °C,O=C(NCc1ccc(F)cc1)c1ccnc(N2CCN(Cc3ccccn3)C2=O)c1
13,127 to 128 °C,Cc1cc(O)c(S(=O)Cc2ccc(F)cc2)c(=O)o1 (configuration not stated)
14,72 to 73 °C,CC1(C)C2CCC1(CCCC(=O)O)CC2
15,200 to 208 °C,CC(=O)OC1CCC2(C)C(CCC3C4CC(C)=C(C(C)=O)C4(C)CC(=O)C32)C1 (configuration not stated)
16,43 to 45 °C,CCOC(=O)c1c(N)cc(C(F)(F)F)nc1C(F)(F)F
17,217 to 218 °C,Cc1c(NC(=O)c2ccc(-c3cc4ccccc4s3)cc2)ccc2cc(CN3CCCC3)cnc12

row,melting point,SMILES
1,122 to 124 °C,O=C(O)c1cc(F)c(F)c(I)c1F
2,215 °C,N#Cc1ccc2c(c1)Sc1ccccc1O2
3,55 to 56.5 °C,CSc1ccc(OCCO)cc1
4,130 to 132 °C,COC(=O)c1ccc(NC(C)=O)cc1OC
5,213 to 215 °C,Cc1cc(C(=O)NCc2cccc3c2C(=O)N(C2CCC(=O)NC2=O)C3=O)nn1C (configuration not stated)
6,84 to 86 °C,CNC(=O)C(=NOC)c1ccccc1COc1ncc(Sc2ccccc2)cc1Cl
7,90 °C,C=CCOc1ccc(C[C@@H](NC(C)=O)C(=O)OC)cc1
8,113 to 115 °C,CS(=O)(=O)c1ccc(-c2cnn(CC(F)(F)F)c(=O)c2OCc2ccco2)cc1
9,235 to 241 °C,O=P(O)(O)C(O)(Cn1ccnc1)P(=O)(O)O
10,220 to 222 °C,Cc1c(-c2ccccc2)oc2c(C(=O)O)cccc12
11,49 to 51 °C,COc1ccsc1C(=O)C=C(C)C
12,78 to 79 °C,CC(C)(C)OC1CCCC2C(=O)CCCC12C (configuration not stated)
13,136 to 138 °C,O=C(NCc1cccc([N+](=O)[O-])c1)c1ccccc1
14,288 °C,Cc1c(C(=O)Nc2ccc(N3CCN(C4CCOCC4)CC3)c(C#N)c2)cnn1-c1ccc(Br)cc1
15,80 to 86 °C,Cc1c(NC(=O)C(CSC(=O)c2cccnc2)Cc2ccccc2)cccc1C(=O)O (configuration not stated)
16,172 to 173 °C,CCOc1cc(NC(=O)CCC(=O)c2ccc(OCC)c(OCC)c2)nc(-c2ccccc2)c1
